Experimental data published in patent publication US20140135310A1, “SULPHONAMIDE DERIVATIVES OF ALICYCLIC AMINES FOR THE TREATMENT OF CENTRAL NERVOUS SYSTEM DISEASES” (Adamed Sp. z o.o., priority 2011, published 2014).
Like-named read-outs stand apart in the source and are kept apart here.

What was measured:
[1] = biological target: T1, 5-HT1A receptor (rat hippocampus) (Rattus norvegicus, UniProt P19327); test: Radioligand binding assay, serotoninergic 5-HT1A receptors; settings: binding assay result in %, Table 5a;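 further: test compound at 1 µM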
T1 construct: hippocampus; from tissue; host or cells: rat hippocampus
T1 sequence (P19327 1-422): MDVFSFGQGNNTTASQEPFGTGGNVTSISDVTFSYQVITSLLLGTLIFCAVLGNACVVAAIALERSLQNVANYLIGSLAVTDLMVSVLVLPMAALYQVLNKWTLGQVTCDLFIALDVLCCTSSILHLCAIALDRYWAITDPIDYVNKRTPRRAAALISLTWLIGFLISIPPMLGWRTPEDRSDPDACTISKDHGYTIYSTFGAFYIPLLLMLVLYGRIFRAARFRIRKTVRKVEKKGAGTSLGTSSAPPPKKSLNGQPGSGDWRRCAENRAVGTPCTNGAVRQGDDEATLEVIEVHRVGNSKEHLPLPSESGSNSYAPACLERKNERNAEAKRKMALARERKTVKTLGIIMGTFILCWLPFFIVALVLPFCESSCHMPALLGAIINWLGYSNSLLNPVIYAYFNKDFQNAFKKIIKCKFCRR

5-HT7 receptor = biological target: T2, 5-HT7 receptor (Homo sapiens, UniProt P34969); test: Radioligand binding assay, serotoninergic 5-HT7 receptors; settings: binding assay result in %, Table 5a;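 further: test compound at 1 µM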
T2 construct: purchased PerkinElmer
T2 sequence (P34969 whole entry): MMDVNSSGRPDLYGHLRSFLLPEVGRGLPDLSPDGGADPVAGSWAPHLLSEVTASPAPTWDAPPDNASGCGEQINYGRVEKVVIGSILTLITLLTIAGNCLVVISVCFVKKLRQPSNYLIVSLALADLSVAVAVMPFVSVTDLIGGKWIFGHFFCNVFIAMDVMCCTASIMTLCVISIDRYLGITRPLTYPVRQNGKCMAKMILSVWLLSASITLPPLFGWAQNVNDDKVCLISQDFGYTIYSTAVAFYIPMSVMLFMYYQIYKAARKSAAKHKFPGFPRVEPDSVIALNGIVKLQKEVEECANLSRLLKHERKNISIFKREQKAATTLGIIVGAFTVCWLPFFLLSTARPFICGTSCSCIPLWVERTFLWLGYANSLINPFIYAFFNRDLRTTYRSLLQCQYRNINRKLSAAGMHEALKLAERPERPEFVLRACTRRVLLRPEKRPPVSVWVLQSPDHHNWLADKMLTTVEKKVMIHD
Outline: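 Competition binding at human 5-HT7 receptors with a radioligand, detected by scintillation counting; non-specific binding was defined with excess unlabelled ligand. IC50 came from Hill-equation fits of competition curves, and Ki from Cheng–Prusoff using radioligand concentration and Scatchard-derived KD.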

[2] = biological target: 5-HT7 serotoninergic receptors (Homo sapiens, UniProt P34969); test: Cellular functional assay, 5-HT7 serotoninergic receptors; assay type: cell-based; settings: for 5-HT7 ag [%]: agonist mode, percent of control specific agonist response; for 5-HT7 antag [%]: antagonist mode
5-HT7 serotoninergic receptors, sequence (P34969 whole entry): as above
Procedure: (§1) The results are expressed as a percent of control specific agonist response ((measured specific response/control specific agonist response)×100) obtained in the presence of the test compounds.
(§2) The EC50 values (concentration producing a half-maximal specific response) and IC50 values (concentration causing a half-maximal inhibition of the control specific agonist response) were determined by non-linear regression analysis of the concentration-response curves generated with mean replicate values using Hill equation curve fitting (Y=D+[(A−D)/(1+(C/C50)nH)], where Y=specific response, D=minimum specific response, A=maximum specific response, C=compound concentration, and C50=EC50 or IC50, and nH=slope factor). This analysis was performed using a software developed at Cerep (Hill software) and validated by comparison with data generated by the commercial software SigmaPlot® 4.0 for Windows® (© 1997 by SPSS Inc.).
(§3) For the antagonists, the apparent dissociation constants (Kb) were calculated using the modified Cheng Prusoff equation (Kb=IC50/(1+(A/EC50A)), where A=concentration of reference agonist in the assay, and EC50A=EC50 value of the reference agonist).

σ receptors = test: Radioligand binding assay, σ receptors; settings: rat cerebral cortex, [3H]DTG 8 nM
Text: (§4) The specific ligand binding to the receptors is defined as the difference between the total binding and the non-specific binding determined in the presence of the excess of unlabelled ligand.
The results are expressed as a percent of control specific binding ((measured specific binding/control specific binding)×100) and as a percent inhibition of control specific binding (100−((measured specific binding/control specific binding)×100)) obtained in the presence of the test compounds. The specific ligand binding to the receptors is defined as the difference between the total binding and the nonspecific binding determined in the presence of an excess of unlabelled ligand. Scintillation counting was the method of detection of ligand binding. The IC50 values (concentration causing a half-maximal inhibition of control specific binding) were determined by non-linear regression analysis of the competition curves generated with mean replicate values using Hill equation curve fitting (Y=D+[(A−D)/(1+(C/C50)nH)], where Y=specific binding, D=minimum specific binding, A=maximum specific binding, C=compound concentration, C50=IC50, and nH=slope factor). […] The inhibition constants (Ki) were calculated using the Cheng Prusoff equation (Ki=IC50/(1+(L/KD)), where L=concentration of radioligand in the assay, and KD=affinity of the radioligand for the receptor). A scatchard plot was used to determine the Kd.

[3] = biological target: 5-HT2A serotoninergic receptors (Homo sapiens, UniProt P28223); test: Cellular functional assay, 5-HT2A serotoninergic receptors; assay type: cell-based
5-HT2A serotoninergic receptors, sequence (P28223 whole entry): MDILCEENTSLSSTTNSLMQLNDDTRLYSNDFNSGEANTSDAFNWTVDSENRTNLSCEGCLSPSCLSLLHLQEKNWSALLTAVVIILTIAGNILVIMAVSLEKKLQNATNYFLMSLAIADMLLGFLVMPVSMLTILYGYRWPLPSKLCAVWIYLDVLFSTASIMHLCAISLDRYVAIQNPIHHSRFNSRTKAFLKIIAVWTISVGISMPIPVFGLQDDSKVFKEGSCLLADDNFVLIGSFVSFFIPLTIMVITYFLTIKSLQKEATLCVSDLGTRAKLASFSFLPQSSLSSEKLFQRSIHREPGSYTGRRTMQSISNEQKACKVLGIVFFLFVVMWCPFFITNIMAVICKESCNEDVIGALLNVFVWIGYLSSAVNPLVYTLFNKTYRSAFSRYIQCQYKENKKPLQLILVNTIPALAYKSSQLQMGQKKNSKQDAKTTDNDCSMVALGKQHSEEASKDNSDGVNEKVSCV
Procedure: as §1
as §2, with “factor).” for “factor). This analysis was performed using a software developed at Cerep (Hill software) and validated by comparison with data generated by the commercial software SigmaPlot® 4.0 for Windows® (© 1997 by SPSS Inc.).”
as §3

M3 muscarinic receptors = biological target: T3, M3 muscarinic receptors (Homo sapiens, UniProt P20309); test: Radioligand binding assay, muscarinic M3 receptors; settings: test compound 1×10^−6 M
T3 construct: expressed in transfected cells; host or cells: CHO cells
T3 sequence (P20309 whole entry): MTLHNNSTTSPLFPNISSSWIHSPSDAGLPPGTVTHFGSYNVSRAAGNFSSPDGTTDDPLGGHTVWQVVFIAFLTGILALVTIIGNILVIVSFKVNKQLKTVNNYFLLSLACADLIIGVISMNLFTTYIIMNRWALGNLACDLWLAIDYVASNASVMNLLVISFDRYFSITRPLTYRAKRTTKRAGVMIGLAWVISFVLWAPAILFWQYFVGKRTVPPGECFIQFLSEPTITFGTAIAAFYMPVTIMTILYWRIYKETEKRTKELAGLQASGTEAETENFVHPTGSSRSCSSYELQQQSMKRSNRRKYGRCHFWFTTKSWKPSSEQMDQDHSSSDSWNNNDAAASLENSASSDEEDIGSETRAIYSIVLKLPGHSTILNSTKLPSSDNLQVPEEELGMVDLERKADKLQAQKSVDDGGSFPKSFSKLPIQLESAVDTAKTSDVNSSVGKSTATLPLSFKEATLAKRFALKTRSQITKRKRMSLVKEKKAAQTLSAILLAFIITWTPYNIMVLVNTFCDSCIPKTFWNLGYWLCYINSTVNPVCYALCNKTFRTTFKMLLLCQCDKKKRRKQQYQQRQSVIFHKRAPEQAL
Text: as §4
The results are expressed as a percent of control specific binding ((measured specific binding/control specific binding)×100) and as a percent inhibition of control specific binding (100−((measured specific binding/control specific binding)×100)) obtained in the presence of the test compounds. The specific ligand binding to the receptors is defined as the difference between the total binding and the nonspecific binding determined in the presence of an excess of unlabelled ligand. Scintillation counting was the method of detection of ligand binding. The IC50 values (concentration causing a half-maximal inhibition of control specific binding) were determined by non-linear regression analysis of the competition curves generated with mean replicate values using Hill equation curve fitting (Y=D+[(A−D)/(1+(C/C50)nH)], where Y=specific binding, D=minimum specific binding, A=maximum specific binding, C=compound concentration, C50=IC50, and nH=slope factor). This analysis was performed using a software developed at Cerep (Hill software) and validated by comparison with data generated by the commercial software SigmaPlot® 4.0 for Windows® (© 1997 by SPSS Inc.). The inhibition constants (Ki) were calculated using the Cheng Prusoff equation (Ki=IC50/(1+(L/KD)), where L=concentration of radioligand in the assay, and KD=affinity of the radioligand for the receptor). A scatchard plot was used to determine the Kd.
Experimental conditions for tests are given in Table 10, and results of tests for representative compounds are given in Table 11.

[4] = biological target: T4, serotonin transporter (SERT) (Homo sapiens, UniProt P31645); test: Radioligand binding assay, serotonin transporter (SERT); settings: binding assay, test compound 1×10^−6 M
T4 construct: expressed in transfected cells; host or cells: CHO cells
T4 sequence (P31645 whole entry): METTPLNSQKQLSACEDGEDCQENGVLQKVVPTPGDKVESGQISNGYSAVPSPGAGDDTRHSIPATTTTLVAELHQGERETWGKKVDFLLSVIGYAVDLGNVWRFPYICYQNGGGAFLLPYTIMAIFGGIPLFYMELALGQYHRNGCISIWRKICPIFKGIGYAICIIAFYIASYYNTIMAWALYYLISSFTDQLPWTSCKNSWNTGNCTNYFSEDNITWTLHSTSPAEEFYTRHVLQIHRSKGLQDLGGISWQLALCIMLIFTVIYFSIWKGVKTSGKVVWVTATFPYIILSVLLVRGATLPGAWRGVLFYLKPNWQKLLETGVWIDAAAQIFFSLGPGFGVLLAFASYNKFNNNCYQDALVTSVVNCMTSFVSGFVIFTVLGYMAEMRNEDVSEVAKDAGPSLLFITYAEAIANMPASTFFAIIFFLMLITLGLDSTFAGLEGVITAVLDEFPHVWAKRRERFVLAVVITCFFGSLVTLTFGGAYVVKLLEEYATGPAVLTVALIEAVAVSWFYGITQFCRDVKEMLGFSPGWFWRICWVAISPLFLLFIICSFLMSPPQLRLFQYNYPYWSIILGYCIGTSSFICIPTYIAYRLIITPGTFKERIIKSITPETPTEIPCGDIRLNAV
Outline: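 Radioligand competition binding with scintillation detection; specific binding is total minus binding under excess unlabelled ligand. Reported as % of control specific binding or % inhibition; IC50 from Hill-equation non-linear regression of competition curves, and Ki via Cheng-Prusoff using radioligand concentration and Scatchard-derived KD.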

[5] = system: α1 adrenergic receptors (rat cerebral cortex); test: Radioligand binding assay, adrenergic α1 receptors; settings: test compound 1×10^−6 M
Outline: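 Values derive from radioligand displacement, with non-specific binding defined by excess cold ligand and detection by scintillation. Hill-fit IC50s were converted to Ki via Cheng-Prusoff using Scatchard-derived Kd; percent inhibition of control specific binding also reported.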

[6] = agonist mode, percent of control specific agonist response

Structure (SMILES) | inhibition at 1 µM [1] | inhibition at 1 µM (5-HT7 receptor) | 5-HT7 ag [%] [2] | Kb ([2]; apparent dissociation constant, modified Cheng Prusoff equation, read-out: 5-HT7 antag Kb) | σ [%] (σ receptors) | 5-HT2A ag [%] [3] | inhibition at 1 µM (M3 muscarinic receptors) | inhibition at 1 µM [4] | α1 [%] [5] | 5-HT1A [%] [1] | 5-HT7 [%] (5-HT7 receptor) | 5-HT7 antag [%] [2] | 5-HT2A ag [%] [3, 6] | 5-HT2A antag [%] ([3]; antagonist mode) | M3 [%] (M3 muscarinic receptors) | SERT [%] [4]
O=S(=O)(NC1CCN(CCCc2noc3cc(F)ccc23)CC1)c1cccc2ccccc12 [Compound 34, N-[1-[3-(6-Fluoro-1,2-benzoxazol-3-yl)propyl]-4-piperidine]-naphthalene-1-sulphonamide] | 32% | 100% | −1% | 0.077 nM | 50% | −1% | 12% | 43% | 91% | – | – | – | – | – | – | –
O=S(=O)(NC1CN(CCOc2cccc3[nH]ccc23)C1)c1cccc2ccccc12 [Compound 49, N-[1-[2-(1H-Indol-4-yloxy)ethyl]azetidin-3-yl]naphthalene-1-sulphonamide] | 100% | 100% | 26% | – | 50% | – | 11% | 41% | 89% | – | – | – | – | – | – | –
O=S(=O)(NC1CN(CCOc2cccc3[nH]ccc23)C1)c1ccc2ccccc2c1 [Compound 50, N-[1-[2-(1H-Indol-4-yloxy)ethyl]azetidin-3-yl]naphthalene-2-sulphonamide] | 101% | 99% | 21% | – | 59% | −2% | 2% | 20% | 88% | – | – | – | – | – | – | –
O=S(=O)(NCC1CN(CCOc2cccc3c2OCCO3)C1)c1ccc(Cl)c(Cl)c1 [Compound 183, 3,4-Dichloro-N-[[1-[2-(2,3-dihydro-1,4-benzodioxin-5-yloxy)ethyl]azetidin-3-yl]methyl]benzenesulphonamide] | 98% | 102% | 2% | – | 94% | 1% | 13% | 48% | 85% | – | – | – | – | – | – | –
CC(C)(C)c1ccc(S(=O)(=O)NCC2CN(CCOc3cccc4c3OCCO4)C2)cc1 [Compound 181, 4-tert-Butyl-N-[[1-[2-(2,3-dihydro-1,4-benzodioxin-5-yloxy)ethyl]azetidin-3-yl]methyl]benzenesulphonamide] | 98% | 92% | 0% | – | 75% | – | 0% | 26% | 50% | – | – | – | – | – | – | –
O=S(=O)(NC1CN(CCOc2cccc3c2OCCO3)C1)c1cccc2ccccc12 [Compound 94, N-[1-[2-(2,3-Dihydro-1,4-benzodioxan-8-yloxy)ethyl]azetidin-3-yl]-naphthalene-1-sulphonamide] | – | – | 19% | – | 71% | – | – | – | 87% | 98% | 100% | 68% | 7% | 48% | 1% | 62%
Cc1cccc(S(=O)(=O)NC2CN(CCOc3cccc4c3OCCO4)C2)c1 [Compound 93, N-[1-[2-(2,3-Dihydro-1,4-benzodioxan-8-yloxy)ethyl]azetidin-3-yl]-3-methyl-benzenesulphonamide] | – | – | 13% | – | 35% | – | – | – | 52% | 98% | 99% | 76% | – | – | 1% | 23%
O=S(=O)(NC1CN(CCOc2cccc3c2OCCO3)C1)c1ccc(Cl)cc1 [Compound 92, 4-Chloro-N-[1-[2-(2,3-dihydro-1,4-benzodioxan-8-yloxy)ethyl]azetidin-3-yl]benzene-sulphonamide] | – | – | 18% | – | 15% | – | – | – | 47% | 100% | 99% | 69% | – | – | 4% | 10%
O=S(=O)(NCC1CCN(CCCc2noc3cc(F)ccc23)C1)c1ccc2cc(Cl)ccc2c1 (stereo not drawn) [Compound 237, 6-Chloro-N-[[1-[3-(6-fluoro-1,2-benzoxazol-3-yl)propyl]pyrrolidin-3-yl]methyl]naphthalene-2-sulphonamide] | 45% | 96% | – | – | 88% | – | 16% | 61% | 88% | – | – | – | – | – | – | –
CC1(C)Cc2cccc(OCCN3CCC(NS(=O)(=O)c4cccc(O)c4)CC3)c2O1 [Compound 109, N-[1-[2-[(2,2-Dimethyl-3H-benzofuran-7-yl)oxy]ethyl]-4-piperidine]-3-hydroxy-benzenesulphonamide] | – | – | – | – | 39% | – | – | – | 44% | 96% | 99% | – | – | – | 3% | −10%
COc1ccc2cc(S(=O)(=O)N[C@H]3CCN(CCCc4noc5cc(F)ccc45)C3)ccc2c1 [Compound 231, N-[(3S)-1-[3-(6-Fluoro-1,2-benzoxazol-3-yl)propyl]pyrrolidin-3-yl]-6-methoxy-naphthalene-2-sulphonamide] | 34% | 88% | – | – | 87% | – | 22% | 63% | 79% | – | – | – | 0% | – | – | –
